Patent US9867826B2, “Heterocycles as modulators of kinase activity” (Merck Patent GmbH, priority 2013, dated 2018)

What was measured:
[1] = target: His-AKT (Full Length) (Homo sapiens (Human), UniProt P31749); assay: AKT enzyme assay; type: biochemical; details: 160 uM ATP
Protocol: A TTP Mosquito liquid handling instrument was used to place 125 nl of the appropriate concentration of inhibitor in 100% DMSO (for a dose response curve calculation) into each well of a 384-well plate. To this reaction components were added to a final volume of 12.5 μl: • 0.1 ng/μl His-AKT (Full Length), (Invitrogen, Part # P2999, Lot #641228C). • 160 uM ATP (Fluka, 02055) • 1 mM DTT (Sigma, D0632) • 1 mM MgCl2 (Sigma, M1028) • 1 μM substrate peptide (sequence FITC-AHA-GRPRTSSFAEG-NH2), synthesized by Tufts Peptide Synthesis service. • 100 mM HEPES pH 7.5 (Calbiochem, 391338) • 0.015% Brij-35 (Sigma, B4184)
The reaction was incubated for 90 min at 25 C., and then stopped by the addition of 70 μl of Stop buffer (100 mM HEPES pH 7.5, 0.015% Brij-35, 10 mM EDTA (Sigma, E7889)).
The plate was read on a Caliper LC 3000 in an Off-Chip mobility shift assay format, using the following parameters for a 12-sipper chip: screening pressure −2.3 psi, upstream voltage −500, and downstream voltage −3000. These conditions caused unphosphorylated substrate and phosphorylated product peptide to resolve as separate peaks allowing direct measurement of percentage of conversion of substrate to product.
The percent conversion was plotted against concentration of inhibitor to produce a sigmoidal dose response curve, from which an IC50 was calculated.

[2] = target: P70S6K (T412E mutant) (Homo sapiens (Human), UniProt P23443, T412E); assay: P70S6K enzyme assay; type: biochemical; details: 24 μM ATP
Protocol: P70S6K inhibitor compounds were diluted and plated in 96 well plates. A reaction mixture including the following components was then added to the compound plate to initiate the enzyme reaction; P70S6K (3 nM, T412E mutant, Millipore) was mixed with 24 μM ATP in an assay buffer containing 100 mM Hepes (pH 7.5), 5 mM MgCl2, 1 mM DTT, 0.015% Brij and 1 μM of the substrate peptide FITC-AHA-AKRRRLSSLRA-OH (derived from the S6 ribosomal protein sequence, FITC=fluorescein isothiocyanate, AHA=6-aminohexanoic acid). The reaction was incubated for 90 min at 25° C., before the addition of 10 mM EDTA to stop the reaction. The proportion of substrate and product (phosphorylated) peptide was analysed on a Caliper Life Sciences Lab Chip 3000, using a pressure of −1.4 psi, and upstream and downstream voltages of −3000 and −700 respectively. Product peaks were resolved before substrate peaks on the resulting chromatograms.

Chain of His-AKT (Full Length) (P31749 whole entry): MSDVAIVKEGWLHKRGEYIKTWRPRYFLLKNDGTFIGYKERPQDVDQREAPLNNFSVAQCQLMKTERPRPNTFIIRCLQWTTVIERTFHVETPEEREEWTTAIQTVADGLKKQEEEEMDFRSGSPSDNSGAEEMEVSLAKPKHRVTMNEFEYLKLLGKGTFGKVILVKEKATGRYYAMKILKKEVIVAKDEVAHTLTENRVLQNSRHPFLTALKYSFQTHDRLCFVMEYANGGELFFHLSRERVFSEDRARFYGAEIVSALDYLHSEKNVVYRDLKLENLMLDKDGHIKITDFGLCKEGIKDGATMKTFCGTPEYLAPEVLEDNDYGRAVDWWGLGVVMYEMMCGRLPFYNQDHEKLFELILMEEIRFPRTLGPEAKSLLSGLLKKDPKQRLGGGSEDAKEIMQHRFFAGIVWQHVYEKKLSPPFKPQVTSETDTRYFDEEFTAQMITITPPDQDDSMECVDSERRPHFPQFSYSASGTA
Chain of P70S6K (T412E mutant) (P23443 whole entry T412E): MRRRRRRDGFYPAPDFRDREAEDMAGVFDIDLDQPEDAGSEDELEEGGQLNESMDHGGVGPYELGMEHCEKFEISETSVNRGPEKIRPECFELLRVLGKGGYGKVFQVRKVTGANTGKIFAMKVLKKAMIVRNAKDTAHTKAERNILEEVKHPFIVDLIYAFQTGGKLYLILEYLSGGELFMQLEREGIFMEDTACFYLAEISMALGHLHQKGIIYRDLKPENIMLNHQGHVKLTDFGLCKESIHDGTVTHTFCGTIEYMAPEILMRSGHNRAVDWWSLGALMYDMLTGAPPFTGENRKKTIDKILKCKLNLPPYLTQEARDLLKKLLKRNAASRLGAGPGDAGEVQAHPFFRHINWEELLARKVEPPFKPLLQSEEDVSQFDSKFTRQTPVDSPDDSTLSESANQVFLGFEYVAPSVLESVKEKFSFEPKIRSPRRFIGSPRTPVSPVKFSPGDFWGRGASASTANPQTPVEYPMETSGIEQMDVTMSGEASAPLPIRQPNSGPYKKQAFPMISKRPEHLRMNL

Row | Structure (SMILES) | IC50 [1] | IC50 [2]
1 | N#Cc1c(N)ncnc1N1CC[C@@H](c2nc(-c3ccc(F)c(C(F)(F)F)c3)cn2CCN2CCC2)[C@@H](F)C1 (racemic) [Compound 1, 4-Amino-6-{3,4-cis-4-[1-(2-azetidin-1-yl-ethyl)-4-(4-fluoro-3-trifluoromethyl-phenyl)-1H-imidazol-2-yl]-3-fluoro-piperidin-1-yl}-pyrimidine-5-carbonitrile] | < 1 nM | < 1 nM
2 | NC(=O)c1c(N)ncnc1N1CC[C@@H](c2nc(-c3ccc(F)c(C(F)(F)F)c3)cn2CCN2CCC2)[C@@H](F)C1 (racemic) [Compound 2, 4-Amino-6-{3,4-cis-4-{1-(2-azetidin-1-yl-ethyl)-4-(4-fluoro-3-trifluoromethyl-phenyl)-1H-imidazol-2-yl}-3-fluoro-piperidin-1-yl}-pyrimidine-5-carboxamide] | < 1 nM | < 1 nM
3 | C[C@H]1CN(c2ncnc(N)c2C#N)CC[C@H]1c1nc(-c2ccc(F)c(C(F)(F)F)c2)cn1CCN1CCC1 (racemic) [Compound 5, 4-Amino-6-{3,4-cis-4-[1-(2-azetidin-1-yl-ethyl)-4-(4-fluoro-3-trifluoromethyl-phenyl)-1H-imidazol-2-yl]-3-methyl-piperidin-1-yl}-pyrimidine-5-carbonitrile] | > 10 nM | 1 to 10 nM
4 | C[C@H]1CN(c2ncnc(N)c2C(N)=O)CC[C@H]1c1nc(-c2ccc(F)c(C(F)(F)F)c2)cn1CCN1CCC1 (racemic) [Compound 6, 4-Amino-6-{3,4-cis-4-[1-(2-azetidin-1-yl-ethyl)-4-(4-fluoro-3-trifluoromethyl-phenyl)-1H-imidazol-2-yl]-3-methyl-piperidin-1-yl}-pyrimidine-5-carboxamide] | > 10 nM | > 10 nM
5 | N#Cc1c(N)ncnc1N1CC[C@H](c2nc(-c3ccc(F)c(C(F)(F)F)c3)cn2CCN2CCC2)[C@@H](F)C1 (racemic) [Compound 7, 4-amino-6-{3,4-trans-4-[1-(2-azetidin-1-yl-ethyl)-4-(4-fluoro-3-trifluoromethyl-phenyl)-1H-imidazol-2-yl]-3-fluoro-piperidin-1-yl}-pyrimidine-5-carbonitrile] | > 10 nM | 1 to 10 nM

Further lines, results first:

Row | IC50 [1] | IC50 [2] | Structure (SMILES)
6 | > 10 nM | 1 to 10 nM | NC(=O)c1c(N)ncnc1N1CC[C@@H](c2nc(-c3ccc(F)c(C(F)(F)F)c3)cn2CCN2CCC2)[C@H](F)C1 (racemic) [Compound 8, 4-Amino-6-{3,4-trans-4-[1-(2-azetidin-1-yl-ethyl)-4-(4-fluoro-3-trifluoromethyl-phenyl)-1H-imidazol-2-yl]-3-fluoro-piperidin-1-yl}-pyrimidine-5-carboxamide]
7 | 1 to 10 nM | 1 to 10 nM | Cc1cc(-c2cn(CCN(C)C)c([C@@H]3CCN(c4ncnc(N)c4C#N)C[C@@H]3F)n2)ccc1F (racemic) [Compound 9]
8 | < 1 nM | < 1 nM | Nc1ncnc(N2CC[C@@H](c3nc(-c4ccc(F)c(C(F)(F)F)c4)cn3CCN3CCC3)[C@@H](F)C2)c1Cl (racemic) [Compound 10, 6-{3,4-cis-4-[1-(2-Azetidin-1-yl-ethyl)-4-(4-fluoro-3-trifluoromethyl-phenyl)-1H-imidazol-2-yl]-3-fluoro-piperidin-1-yl}-5-chloro-pyrimidin-4-ylamine]
9 | 1 to 10 nM | 1 to 10 nM | Nc1ncnc(N2CC[C@@H](c3nc(-c4ccc(F)c(C(F)(F)F)c4)cn3CCN3CCC3)[C@H](F)C2)c1Cl (racemic) [Compound 11, 6-{3,4-trans-4-[1-(2-Azetidin-1-yl-ethyl)-4-(4-fluoro-3-trifluoromethyl-phenyl)-1H-imidazol-2-yl]-3-fluoro-piperidin-1-yl}-5-chloro-pyrimidin-4-ylamine]
10 | 1 to 10 nM | 1 to 10 nM | Cc1cc(-c2cn(CCN(C)C)c([C@H]3CCN(c4ncnc(N)c4Cl)C[C@H]3F)n2)ccc1F (racemic) [Compound 12, 5-chloro-6-{3,4-cis-4-[1-(2-dimethylamino-ethyl)-4-(4-fluoro-3-methyl-phenyl)-1H-imidazol-2-yl]-3-fluoro-piperidin-1-yl}-pyrimidin-4-ylamine]
